#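 Briefly, cells in 96-well plates were exposed to five compound concentrations for 48 h, and endpoints were estimated by linear interpolation. GI50 = concentration required for 50% inhibition of growth. TGI: concentration producing complete growth inhibition.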
# What was measured:
# Assay in all cases: DTP human tumour cell line panel, 48 h
# HS 578T breast = system: HS 578T breast
# BT-549 breast = system: BT-549 breast
# ACHN renal = system: ACHN renal
# SF-295 CNS = system: SF-295 CNS
# CCRF-CEM leukemia = system: CCRF-CEM leukemia
# HOP-62 NSCLC = system: HOP-62 NSCLC
# RPMI-8226 leukemia = system: RPMI-8226 leukemia
# HCT-116 colon = system: HCT-116 colon
# K-562 leukemia = system: K-562 leukemia
# PC-3 prostate = system: PC-3 prostate
# U251 CNS = system: U251 CNS
# SK-OV-3 ovarian = system: SK-OV-3 ovarian
# A498 renal = system: A498 renal
# SR leukemia = system: SR leukemia
# SNB-75 CNS = system: SNB-75 CNS
# 786-0 renal = system: 786-0 renal
# DU-145 prostate = system: DU-145 prostate
# SNB-19 CNS = system: SNB-19 CNS
# SK-MEL-2 melanoma = system: SK-MEL-2 melanoma
# SW-620 colon = system: SW-620 colon
# SK-MEL-28 melanoma = system: SK-MEL-28 melanoma
# RXF 393 renal = system: RXF 393 renal
# CAKI-1 renal = system: CAKI-1 renal
# COLO 205 colon = system: COLO 205 colon
# OVCAR-8 ovarian = system: OVCAR-8 ovarian
# HCT-15 colon = system: HCT-15 colon
# UO-31 renal = system: UO-31 renal
# OVCAR-5 ovarian = system: OVCAR-5 ovarian
# NCI-H23 lung = system: NCI-H23 lung
# SF-539 CNS = system: SF-539 CNS
# MOLT-4 leukemia = system: MOLT-4 leukemia
# SF-268 CNS = system: SF-268 CNS
# UACC-257 melanoma = system: UACC-257 melanoma
# A549 NSCLC = system: A549 NSCLC
# KM12 colon = system: KM12 colon
# NCI-H460 lung = system: NCI-H460 lung
# NCI-H226 lung = system: NCI-H226 lung
# EKVX NSCLC = system: EKVX NSCLC
# LOX IMVI melanoma = system: LOX IMVI melanoma
# UACC-62 melanoma = system: UACC-62 melanoma
# IGROV1 ovarian = system: IGROV1 ovarian
# NCI-H522 lung = system: NCI-H522 lung
# SK-MEL-5 melanoma = system: SK-MEL-5 melanoma
# HT29 colon = system: HT29 colon
# HOP-92 NSCLC = system: HOP-92 NSCLC
# TK-10 renal = system: TK-10 renal
# HCC-2998 colon = system: HCC-2998 colon
# MALME-3M melanoma = system: MALME-3M melanoma
# OVCAR-4 ovarian = system: OVCAR-4 ovarian
# NCI/ADR-RES ovarian = system: NCI/ADR-RES ovarian
# M14 melanoma = system: M14 melanoma
# SN12C renal = system: SN12C renal
# MDA-MB-231 breast = system: MDA-MB-231 breast
# HL-60(TB) leukemia = system: HL-60(TB) leukemia
# MDA-MB-435 = system: MDA-MB-435
# MCF7 breast = system: MCF7 breast
smiles,measurement,setting,value
NC(=O)c1c(NC(=O)c2cccc(C(F)(F)F)c2F)sc2c1CCC(=O)C2,GI50,HS 578T breast,831 nM
same,TGI,HS 578T breast,> 100000 nM
same,GI50,BT-549 breast,327 nM
same,TGI,BT-549 breast,> 100000 nM
same,GI50,ACHN renal,337 nM
same,TGI,ACHN renal,> 100000 nM
same,GI50,SF-295 CNS,3090 nM
same,TGI,SF-295 CNS,> 100000 nM
same,GI50,CCRF-CEM leukemia,212 nM
same,TGI,CCRF-CEM leukemia,> 100000 nM
same,GI50,HOP-62 NSCLC,6690 nM
same,TGI,HOP-62 NSCLC,> 100000 nM
same,GI50,RPMI-8226 leukemia,231 nM
same,GI50,HCT-116 colon,306 nM
same,TGI,HCT-116 colon,> 100000 nM
same,GI50,K-562 leukemia,231 nM
same,TGI,K-562 leukemia,> 100000 nM
same,GI50,PC-3 prostate,270 nM
same,TGI,PC-3 prostate,> 100000 nM
same,GI50,U251 CNS,315 nM
same,TGI,U251 CNS,> 100000 nM
same,GI50,SK-OV-3 ovarian,> 100000 nM
same,TGI,SK-OV-3 ovarian,> 100000 nM
same,GI50,A498 renal,> 100000 nM
same,TGI,A498 renal,> 100000 nM
same,GI50,SR leukemia,326 nM
same,TGI,SR leukemia,> 100000 nM
same,GI50,SNB-75 CNS,2160 nM
same,TGI,SNB-75 CNS,39100 nM
same,GI50,786-0 renal,2200 nM
same,TGI,786-0 renal,> 100000 nM
same,GI50,DU-145 prostate,> 100000 nM
same,TGI,DU-145 prostate,> 100000 nM
same,GI50,SNB-19 CNS,577 nM
same,TGI,SNB-19 CNS,> 100000 nM
same,GI50,SK-MEL-2 melanoma,> 100000 nM
same,TGI,SK-MEL-2 melanoma,> 100000 nM
CCCCCc1ccc(S(=O)(=O)Nc2cccc(-c3csc(NCCN4CCN(C)CC4)n3)c2)cc1,GI50,HS 578T breast,1830 nM
same,TGI,HS 578T breast,4220 nM
same,GI50,SW-620 colon,1660 nM
same,TGI,SW-620 colon,3120 nM
same,GI50,SK-MEL-28 melanoma,1870 nM
same,TGI,SK-MEL-28 melanoma,3360 nM
same,GI50,BT-549 breast,1560 nM
same,TGI,BT-549 breast,2970 nM
same,GI50,RXF 393 renal,1410 nM
same,TGI,RXF 393 renal,2900 nM
same,GI50,CAKI-1 renal,1520 nM
same,TGI,CAKI-1 renal,3190 nM
same,GI50,COLO 205 colon,1640 nM
same,TGI,COLO 205 colon,3160 nM
same,GI50,ACHN renal,1750 nM
same,TGI,ACHN renal,3240 nM
same,GI50,SF-295 CNS,1860 nM
same,TGI,SF-295 CNS,3540 nM
same,GI50,CCRF-CEM leukemia,2590 nM
same,TGI,CCRF-CEM leukemia,9630 nM
same,GI50,HOP-62 NSCLC,1730 nM
same,TGI,HOP-62 NSCLC,3320 nM
same,GI50,OVCAR-8 ovarian,1840 nM
same,TGI,OVCAR-8 ovarian,3500 nM
same,GI50,HCT-15 colon,1680 nM
same,TGI,HCT-15 colon,3310 nM
same,GI50,UO-31 renal,1420 nM
same,TGI,UO-31 renal,2940 nM
same,GI50,OVCAR-5 ovarian,1890 nM
same,TGI,OVCAR-5 ovarian,4010 nM
same,GI50,NCI-H23 lung,1810 nM
same,TGI,NCI-H23 lung,3620 nM
same,GI50,SF-539 CNS,1700 nM
same,TGI,SF-539 CNS,3110 nM
same,GI50,MOLT-4 leukemia,3360 nM
same,TGI,MOLT-4 leukemia,14600 nM
same,GI50,K-562 leukemia,3020 nM
same,TGI,K-562 leukemia,> 100000 nM
same,GI50,SF-268 CNS,1760 nM
same,TGI,SF-268 CNS,3630 nM
same,GI50,UACC-257 melanoma,1730 nM
same,TGI,UACC-257 melanoma,3270 nM
same,GI50,PC-3 prostate,1860 nM
same,TGI,PC-3 prostate,4420 nM
same,GI50,A549 NSCLC,1720 nM
same,TGI,A549 NSCLC,3300 nM
same,GI50,KM12 colon,1720 nM
same,TGI,KM12 colon,3220 nM
same,GI50,NCI-H460 lung,1780 nM
same,TGI,NCI-H460 lung,3290 nM
same,GI50,NCI-H226 lung,1850 nM
same,TGI,NCI-H226 lung,3930 nM
same,GI50,U251 CNS,1700 nM
same,TGI,U251 CNS,3230 nM
same,GI50,EKVX NSCLC,1670 nM
same,TGI,EKVX NSCLC,3610 nM
same,GI50,SK-OV-3 ovarian,1750 nM
same,TGI,SK-OV-3 ovarian,3350 nM
same,GI50,A498 renal,1530 nM
same,TGI,A498 renal,3120 nM
same,GI50,LOX IMVI melanoma,1690 nM
same,TGI,LOX IMVI melanoma,3130 nM
same,GI50,UACC-62 melanoma,1820 nM
same,TGI,UACC-62 melanoma,3470 nM
same,GI50,IGROV1 ovarian,1630 nM
same,TGI,IGROV1 ovarian,3180 nM
same,GI50,NCI-H522 lung,1800 nM
same,TGI,NCI-H522 lung,3430 nM
same,GI50,SK-MEL-5 melanoma,1780 nM
same,TGI,SK-MEL-5 melanoma,3190 nM
same,GI50,HT29 colon,1900 nM
same,TGI,HT29 colon,3710 nM
same,GI50,HOP-92 NSCLC,1280 nM
same,TGI,HOP-92 NSCLC,2730 nM
same,GI50,TK-10 renal,1800 nM
same,TGI,TK-10 renal,3610 nM
same,GI50,HCC-2998 colon,1750 nM
same,TGI,HCC-2998 colon,3240 nM
same,GI50,MALME-3M melanoma,1540 nM
same,TGI,MALME-3M melanoma,2990 nM
same,GI50,SR leukemia,2470 nM
same,TGI,SR leukemia,> 100000 nM
same,GI50,SNB-75 CNS,1390 nM
same,TGI,SNB-75 CNS,2890 nM
same,GI50,OVCAR-4 ovarian,2020 nM
same,TGI,OVCAR-4 ovarian,5180 nM
same,GI50,NCI/ADR-RES ovarian,1840 nM
same,TGI,NCI/ADR-RES ovarian,4250 nM
same,GI50,786-0 renal,1670 nM
same,TGI,786-0 renal,3080 nM
same,GI50,M14 melanoma,1770 nM
same,TGI,M14 melanoma,3420 nM
same,GI50,DU-145 prostate,1960 nM
same,TGI,DU-145 prostate,3920 nM
same,GI50,SN12C renal,2010 nM
same,TGI,SN12C renal,4480 nM
same,GI50,MDA-MB-231 breast,1630 nM
same,TGI,MDA-MB-231 breast,3300 nM
same,GI50,SNB-19 CNS,1960 nM
same,TGI,SNB-19 CNS,4050 nM
same,GI50,HL-60(TB) leukemia,2310 nM
same,TGI,HL-60(TB) leukemia,5340 nM
same,GI50,MDA-MB-435,1700 nM
same,TGI,MDA-MB-435,3300 nM
same,GI50,SK-MEL-2 melanoma,1760 nM
same,TGI,SK-MEL-2 melanoma,3330 nM
same,GI50,MCF7 breast,1690 nM
same,TGI,MCF7 breast,3330 nM
